# Measured values reported in publication PMC10298284, “Synthesis and hLDH Inhibitory Activity of Analogues to Natural Products with 2,8-Dioxabicyclo[3.3.1]nonane Scaffold” (International Journal of Molecular Sciences, 2023).
# Several values for one entry are separate records, joined by “and”; a condition that tells them apart may be missing. Equal entries are not always repeated. Where two headings read alike, the source gives them in different places.
# Columns and labels:
# recombinant human LDHA = biological target: T1, recombinant human LDHA (Homo sapiens, UniProt P00338); test: hLDHA enzymatic activity assay (kinetic spectrofluorimetric, β-NADH fluorescence decrease); assay type: biochemical; details: for IC50: mean ± SD of n = 3 replicates; for Selectivity Rate (IC50 hLDHB/hLDHA): ratio IC50 hLDHB / IC50 hLDHA
# T1 construct: purchased Abcam
# Procedure: (§1) Briefly, the decrease in the coenzyme β-NADH fluorescence (λemission = 460 nm) was measured for 10 min, at different concentration of inhibitors, and its slope was compared with the one obtained when there were not inhibitors added (100% enzymatic activity).
# The enzymatic assay was conducted on 96-well microplates and the decrease in the β-NADH fluorescence (λexcitation = 340 nm; λemission = 460 nm) was detected in a TECAN Infinite 200 Pro M Plex fluorescent plate reader (Tecan Instrument, Inc.) at 28 °C. The activity was determined according to our previously described protocol. The final volume in each well was set to 200 µL using 100 mM potassium phosphate buffer, 0.041 units/mL LDHA, 155 µM β-NADH, 1 mM pyruvate (saturated conditions), and DMSO solutions (5%, v/v) of pure compounds at concentrations in the range of 1–600 µM. The addition of pyruvate allowed the beginning of the reaction and fluorescence was registered every 60 s during 10 min. A lineal time interval was selected to calculate the slope at every single concentration. […] The slope obtained at each concentration was compared to the one obtained for the 100% enzymatic activity control to determine the corresponding enzymatic activity. A nonlinear regression analysis in GraphPad Prism version 9.00 for Windows (GraphPad Software, La Jolla, CA, USA) was used for dose response curve, fitting of logarithm of inhibitor concentration vs. normalized enzymatic activity, to calculate IC50 values (Supplementary Material section). All measurements were made in triplicate and data were expressed as the mean ± SD.
# recombinant human LDHB = biological target: T2, recombinant human LDHB (Homo sapiens, UniProt P07195); test: hLDHB enzymatic activity assay (same fluorimetric protocol); assay type: biochemical; details: mean ± SD of n = 3 replicates
# T2 construct: purchased Abcam
# T2 sequence (P07195 whole entry): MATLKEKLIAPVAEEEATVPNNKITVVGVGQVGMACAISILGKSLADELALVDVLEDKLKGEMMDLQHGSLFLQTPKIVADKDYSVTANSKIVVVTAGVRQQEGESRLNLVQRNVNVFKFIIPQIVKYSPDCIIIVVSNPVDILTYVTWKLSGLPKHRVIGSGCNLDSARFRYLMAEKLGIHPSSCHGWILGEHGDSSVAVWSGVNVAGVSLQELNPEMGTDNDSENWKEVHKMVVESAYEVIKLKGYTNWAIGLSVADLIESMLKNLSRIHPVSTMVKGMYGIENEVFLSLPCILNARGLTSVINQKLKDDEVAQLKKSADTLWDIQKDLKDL
# Procedure: as §1
# The ability of the synthesized compounds to inhibit the hLDHB enzyme was measured using recombinant human LDHB (95%, specific activity >300 units/mg and concentration of 1.0 mg/mL, Abcam, Cambridge, UK) following the same fluorimetric protocol described in Section 3.4.
# [1] = 1 mM pyruvate, 155 µM β-NADH, pH 7.3, 28 °C, read-out: hLDHA IC50
# [2] = supplementary dose response curves, µM only on the axis label, read-out: IC50 (hLDHA inhibition curve)
Structure (SMILES),IC50 (recombinant human LDHA; [1]),Selectivity Rate (IC50 hLDHB/hLDHA) (recombinant human LDHA),IC50 (recombinant human LDHA; [2]),IC50 (recombinant human LDHB; read-out: hLDHB IC50),"IC50 (recombinant human LDHB; supplementary dose response curves, µM only on the axis label, read-out: IC50 (hLDHB inhibition curve))",Selectivity Rate (IC50 hLDHB/hLDHA) (recombinant human LDHA; listed as 70b)
COc1ccc(C23CC(c4ccccc4O2)c2c(c4ccccc4oc2=O)O3)cc1OC (racemic) [(±)-48],49.6 ± 1.7 µM,>6.0,49.6 ± 1.7 µM,> 300 µM,,
O=c1oc2ccccc2c2c1C1CC(c3ccc(O)cc3)(Oc3ccccc31)O2 (racemic) [(±)-51],34.4 ± 0.8 µM,0.9,34.4 ± 0.8 µM,31.5 ± 3 µM,,
COc1ccc(C23CC(C4=C(O2)C(=O)c2ccccc2C4=O)c2ccccc2O3)cc1OC (racemic) [(±)-57],42.2 ± 2.4 µM,>7.1,42.2 ± 2.4 µM,> 300 µM,,
"COc1ccc([C@]23C[C@H](C4=C(C[C@@H](c5ccccc5)OC4=O)O2)c2ccccc2O3)cc1OC (racemic) [(±)-62a, 2-(3′,4′-Dimethoxyphenyl)-chromane-(4→3″, 2→O-4″)-4″-hydroxy-6″-phenyl-5″,6″-dihydro-2H-pyran-2″-one]",< 10 µM and 3.6 µM,41.8,3.6 ± 0.3 µM,,150 ± 3.9 µM,
"COc1ccc([C@]23C[C@H](C4=C(C[C@H](c5ccccc5)OC4=O)O2)c2ccccc2O3)cc1OC (racemic) [(±)-62b, 2-(3′,4′-Dimethoxyphenyl)-chromane-(4→3″, 2→O-4″)-4″-hydroxy-6″-phenyl-5″,6″-dihydro-2H-pyran-2″-one]",39.4 ± 1.2 µM,>7.6,39.4 ± 1.2 µM,> 300 µM,,

# Second part, the molecule after the results:
IC50 (recombinant human LDHA; [1]),Selectivity Rate (IC50 hLDHB/hLDHA) (recombinant human LDHA),IC50 (recombinant human LDHA; [2]),IC50 (recombinant human LDHB; read-out: hLDHB IC50),"IC50 (recombinant human LDHB; supplementary dose response curves, µM only on the axis label, read-out: IC50 (hLDHB inhibition curve))",Selectivity Rate (IC50 hLDHB/hLDHA) (recombinant human LDHA; listed as 70b),Structure (SMILES)
96.7 ± 9 µM,>3.1,96.7 ± 9 µM,> 300 µM,,,"COc1ccc(C2CC3=C(C(=O)O2)C2CC(c4ccc(OC)c(OC)c4)(O3)Oc3ccccc32)cc1 (racemic) [(±)-64b, 2-(3′,4′-Dimethoxyphenyl)-chromane-(4→3″, 2→O-4″)-4″-hydroxy-6″-(4‴-methoxyphenyl)-5″,6″-dihydro-2H-pyran-2″-one]"
< 10 µM and 8.5 µM,>35.3,8.5 ± 0.4 µM,> 300 µM,,,"COc1ccc(C23CC(C4=C(CC(c5ccccc5)OC4=O)O2)c2cc([N+](=O)[O-])ccc2O3)cc1OC (racemic) [(±)-65b, 2-(3′,4′-Dimethoxyphenyl)-6-nitrochromane-(4→3″, 2→O-4″)-4″-hydroxy-6″-phenyl-5″,6″-dihydro-2H-pyran-2″-one]"
< 10 µM and 6 µM,3.4,6 ± 0.1 µM,20.4 ± 0.7 µM,,,"COc1ccc(C23CC(C4=C(CC(c5ccc(Cl)cc5)OC4=O)O2)c2cc([N+](=O)[O-])ccc2O3)cc1OC (racemic) [(±)-66b, 2-(3′,4′-Dimethoxyphenyl)-6-nitrochromane-(4→3″, 2→O-4″)-6″-(4‴-chlorophenyl)-4″-hydroxy-5″,6″-dihydro-2H-pyran-2″-one]"
14.6 ± 0.3 µM,3.7,14.6 ± 0.3 µM,53.7 ± 0.9 µM,,,"COc1ccc(C2CC3=C(C(=O)O2)C2CC(c4ccc(OC)c(OC)c4)(O3)Oc3ccc([N+](=O)[O-])cc32)cc1 (racemic) [(±)-67b, 2-(3′,4′-Dimethoxyphenyl)-6-nitrochromane-(4→3″, 2→O-4″)-4″-hydroxy-6″-(4‴-methoxyphenyl)-5″,6″-dihydro-2H-pyran-2″-one]"
14.2 ± 0.8 µM,5.4,14.2 ± 0.8 µM,77 ± 9.7 µM,,,"COc1ccc(C23CC(C4=C(CC(c5ccc(Cl)cc5)OC4=O)O2)c2cc(Cl)ccc2O3)cc1OC (racemic) [(±)-69b, 2-(3′,4′-Dimethoxyphenyl)-6-chlorochromane-(4→3″, 2→O-4″)-6″-(4‴-chlorophenyl)-4″-hydroxy-5″,6″-dihydro-2H-pyran-2″-one]"
20.2 ± 0.7 µM,14.5,20.2 ± 0.7 µM,292 ± 4.1 µM,,> 10,"COc1ccc(C2CC3=C(C(=O)O2)C2CC(c4ccc(OC)c(OC)c4)(O3)Oc3ccc(Cl)cc32)cc1 (racemic) [(±)-70b, 2-(3′.4′-Dimethoxyphenyl)-6-chlorochromane-(4→3″, 2→O-4″)-4″-hydroxy-6″-(4‴-methoxyphenyl)-5″,6″-dihydro-2H-pyran-2″-one]"
